From PubChem BioAssay (NCI)
Where “and” joins values, the source holds several entries; their conditions need not be identical. Equal entries are not always repeated.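 In this assay, cells in 96-well plates receive the compound at five concentrations for 48 hours. Endpoints are linearly interpolated between the surrounding concentrations. GI50 is the concentration that inhibits growth by half. At the TGI there is no net growth.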

Key:
Assay in all cases: NCI-60 cell line screen, 48 h
[1] = test system: HCT-15 colon
[2] = test system: MDA-N
[3] = test system: NCI-H23 lung
[4] = test system: NCI-H522 lung
[5] = test system: OVCAR-3 ovarian
[6] = test system: SF-268 CNS
[7] = test system: SF-295 CNS
[8] = test system: SK-MEL-2 melanoma
[9] = test system: UO-31 renal
[10] = test system: HCC-2998 colon
[11] = test system: RPMI-8226 leukemia

SMILES | TGI [1] | TGI [2] | TGI [3] | TGI [4] | TGI [5] | TGI [6] | TGI [7] | TGI [8] | TGI [9] | TGI [10] | TGI [11] | GI50 [10] | GI50 [2] | GI50 [1] | GI50 [7] | GI50 [9] | GI50 [5] | GI50 [6] | GI50 [8]
Cc1cc(C)c2c(n1)S(=O)(=O)N(CCCN1CCN(c3cccc(C(F)(F)F)c3)CC1)/C(=C(\O)c1ccccc1)C2=O | 67 µM | > 100 µM | 21.7 µM | 88.9 µM | 18.1 µM | > 100 µM | 19.7 µM | > 100 µM | 52.7 µM |  |  |  |  |  |  |  |  |  | 
OC1C(O)C(O)C(O)C(O)C1O (centres undefined) | > 1000 µM |  | > 1000 µM |  | > 1000 µM | > 1000 µM |  | > 1000 µM | > 1000 µM | > 1000 µM | > 1000 µM |  |  |  |  |  |  |  | 
CCOC(=O)CCC(C(=O)OCC)n1nc2ccc(Nc3c(C)[n+]([O-])c4cc(Cl)ccc4[n+]3[O-])cc2n1 (centres undefined) | > 100 µM | > 100 µM | > 100 µM | > 100 µM | > 100 µM | > 100 µM | > 100 µM | > 100 µM | > 100 µM |  | > 100 µM |  |  |  |  |  |  |  | 
Cc1cc2c(c3oc(C(O)(CO)C4CO4)cc(=O)c13)C(=O)c1c(O)cccc1C2=O (centres undefined) | 0.00152 µM | 0.00443 µM and 0.00515 µM |  | 0.00323 µM |  |  | 0.00094 µM | 0.00415 µM |  | 0.00727 µM and 0.00365 µM and 0.0112 µM |  | 0.000169 µM | 0.00375 µM |  |  |  |  |  | 
NC1CC2C3CCC2C1C3=O (centres undefined) | > 100 µM | > 100 µM | > 100 µM | > 100 µM | > 100 µM | > 100 µM | > 100 µM | > 100 µM | > 100 µM | > 100 µM |  |  |  |  |  |  |  |  | 
CC(C)(C)c1cc(-c2ccc(-c3cc(C(C)(C)C)c(O)c(C(C)(C)C)c3)cc2)cc(C(C)(C)C)c1O | > 100 µM | > 100 µM | > 100 µM | > 100 µM | > 100 µM | > 100 µM | > 100 µM | > 100 µM | > 100 µM |  | > 100 µM |  |  |  |  |  |  |  | 
CN(C)c1ccc(/C=C/c2sc3ccc4ccccc4c3[n+]2C)cc1 | > 31.5 µM |  |  |  |  |  | 2.32 µM |  | 3.84 µM | 1.57 µM |  | 0.365 µM |  | 0.692 µM | 0.395 µM | 0.401 µM |  |  | 
CN1CCN(CC(=O)Nc2ccc3ncnc(Nc4ccc(Oc5cccc(C(F)(F)F)c5)c(Cl)c4)c3c2)CC1 | 2.52 µM |  |  |  | 2.87 µM | 3.11 µM | 3.31 µM | 4.04 µM | 2.46 µM |  |  |  |  | 1.2 µM | 1.81 µM | 1.2 µM | 1.49 µM | 1.49 µM | 2.02 µM
Cn1c(C(C#N)c2cc(Cl)ncn2)nc2ccccc21 (centres undefined) | > 100 µM | > 100 µM | > 100 µM | > 100 µM | > 100 µM | > 100 µM | > 100 µM |  | > 100 µM |  | > 100 µM |  |  |  |  |  |  |  | 
O=c1ccc2ccccc2o1 | > 100 µM |  | > 100 µM | > 100 µM | > 100 µM | > 100 µM | > 100 µM | > 100 µM | > 100 µM | > 100 µM | > 100 µM |  |  |  |  |  |  |  | 
